Test results as given in ChEMBL document CHEMBL3044922, “N 1-{4-[(10S)-Dihydroartemisinin-10-oxyl]}phenylmethylene-N 2-(2-methylquinoline-4-yl)hydrazine derivatives as antiplasmodial falcipain-2 inhibitors” (Med Chem Res, 2012).

How the values were obtained:
Falcipain 2 = target: T1, Falcipain 2 (Plasmodium falciparum, UniProt Q9N6S8); assay: Inhibition of Plasmodium falciparum recombinant falcipain 2 expressed in Escherichia coli using Z-Leu-Arg-AMC as substrate incubated for 30 min prior to substrate addition measured for 30 min by fluorometric analysis
T1 sequence (Q9N6S8 whole entry): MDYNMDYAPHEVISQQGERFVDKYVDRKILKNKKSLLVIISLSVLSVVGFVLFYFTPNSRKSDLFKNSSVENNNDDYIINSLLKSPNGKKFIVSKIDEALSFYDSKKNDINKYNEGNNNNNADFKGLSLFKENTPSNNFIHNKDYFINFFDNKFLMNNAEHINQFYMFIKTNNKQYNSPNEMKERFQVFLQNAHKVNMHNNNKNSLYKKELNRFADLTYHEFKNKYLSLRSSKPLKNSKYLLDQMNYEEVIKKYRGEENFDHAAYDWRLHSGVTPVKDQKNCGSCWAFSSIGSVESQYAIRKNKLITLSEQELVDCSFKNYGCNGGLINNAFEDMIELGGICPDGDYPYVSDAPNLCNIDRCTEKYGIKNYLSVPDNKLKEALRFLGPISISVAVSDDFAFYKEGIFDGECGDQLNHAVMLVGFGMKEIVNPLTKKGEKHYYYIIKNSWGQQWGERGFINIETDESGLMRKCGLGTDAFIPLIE

[1] = target: T2, Falcipain 2 (Plasmodium falciparum) (UniProt Q9N6S8); assay: Inhibition of Plasmodium falciparum recombinant falcipain 2 expressed in Escherichia coli using Z-Leu-Arg-AMC as substrate at 10 uM incubated for 30 min prior to substrate addition measured for 30 min by fluorometric analysis
T2 sequence (whole entry): T1 sequence (Q9N6S8 whole entry)

Cc1cc(N/N=C/c2ccc(O[C@H]3O[C@@H]4O[C@@]5(C)CC[C@H]6[C@H](C)CC[C@@H]([C@H]3C)[C@@]46OO5)cc2)c2cc(Cl)ccc2n1
IC50 (Falcipain 2): 150 nM | inhibition [1]: 88.2%

Cc1cc(N/N=C/c2ccc(O[C@H]3O[C@@H]4O[C@@]5(C)CC[C@H]6[C@H](C)CC[C@@H]([C@H]3C)[C@@]46OO5)cc2)c2cccc(C)c2n1
IC50 (Falcipain 2): 2280 nM | inhibition [1]: 84.3%

Cc1cc(N/N=C/c2ccc(O[C@H]3O[C@@H]4O[C@@]5(C)CC[C@H]6[C@H](C)CC[C@@H]([C@H]3C)[C@@]46OO5)cc2)c2cccc(F)c2n1
IC50 (Falcipain 2): 280 nM | inhibition [1]: 84.7%

Cc1cc(N/N=C/c2ccc(O[C@H]3O[C@@H]4O[C@@]5(C)CC[C@H]6[C@H](C)CC[C@@H]([C@H]3C)[C@@]46OO5)cc2)c2cc(F)ccc2n1
IC50 (Falcipain 2): 670 nM | inhibition [1]: 88.6%

Cc1cc(N/N=C/c2ccc(O[C@H]3O[C@@H]4O[C@@]5(C)CC[C@H]6[C@H](C)CC[C@@H]([C@H]3C)[C@@]46OO5)cc2)c2cc(Br)ccc2n1
IC50 (Falcipain 2): 260 nM | inhibition [1]: 89.8%

Cc1cc(N/N=C/c2ccc(O[C@H]3O[C@@H]4O[C@@]5(C)CC[C@H]6[C@H](C)CC[C@@H]([C@H]3C)[C@@]46OO5)cc2)c2ccccc2n1
IC50 (Falcipain 2): 890 nM | inhibition [1]: 94.1%

Cc1cc(N/N=C/c2ccc(O[C@H]3O[C@@H]4O[C@@]5(C)CC[C@H]6[C@H](C)CC[C@@H]([C@H]3C)[C@@]46OO5)cc2)c2c(Cl)ccc(C)c2n1
IC50 (Falcipain 2): 390 nM | inhibition [1]: 79.4%

Cc1cc(N/N=C/c2ccc(O[C@H]3O[C@@H]4O[C@@]5(C)CC[C@H]6[C@H](C)CC[C@@H]([C@H]3C)[C@@]46OO5)cc2)c2ccc(Cl)c(C)c2n1
IC50 (Falcipain 2): 210 nM | inhibition [1]: 82.6%

CCc1cccc2c(N/N=C/c3ccc(O[C@H]4O[C@@H]5O[C@@]6(C)CC[C@H]7[C@H](C)CC[C@@H]([C@H]4C)[C@@]57OO6)cc3)cc(C)nc12
IC50 (Falcipain 2): 520 nM | inhibition [1]: 85.1%

Cc1ccc2nc(C)cc(N/N=C/c3ccc(O[C@H]4O[C@@H]5O[C@@]6(C)CC[C@H]7[C@H](C)CC[C@@H]([C@H]4C)[C@@]57OO6)cc3)c2c1
IC50 (Falcipain 2): 780 nM | inhibition [1]: 87.2%

Cc1cc(N/N=C/c2ccc(O[C@H]3O[C@@H]4O[C@@]5(C)CC[C@H]6[C@H](C)CC[C@@H]([C@H]3C)[C@@]46OO5)cc2)c2ccc(Cl)cc2n1
IC50 (Falcipain 2): 170 nM | inhibition [1]: 88.4%

Cc1cc(N/N=C/c2ccc(O[C@H]3O[C@@H]4O[C@@]5(C)CC[C@H]6[C@H](C)CC[C@@H]([C@H]3C)[C@@]46OO5)cc2)c2cccc(Br)c2n1
IC50 (Falcipain 2): 840 nM | inhibition [1]: 94.1%

Cc1cc(N/N=C/c2ccc(O[C@H]3O[C@@H]4O[C@@]5(C)CC[C@H]6[C@H](C)CC[C@@H]([C@H]3C)[C@@]46OO5)cc2)c2ccc(C)c(C)c2n1
IC50 (Falcipain 2): 840 nM | inhibition [1]: 79.4%

CC(C)C[C@H](NC(=O)[C@H]1O[C@@H]1C(=O)O)C(=O)NCCCCN=C(N)N [E-64]
IC50 (Falcipain 2): 20 nM | inhibition [1]: 92%

COc1ccc2nc(C)cc(N/N=C/c3ccc(O[C@H]4O[C@@H]5O[C@@]6(C)CC[C@H]7[C@H](C)CC[C@@H]([C@H]4C)[C@@]57OO6)cc3)c2c1
IC50 (Falcipain 2): 290 nM | inhibition [1]: 93.7%
